Experimental data reported in patent publication US20220313698A1, “MODULATORS OF CYSTIC FIBROSIS TRANSMEMBRANE CONDUCTANCE REGULATOR” (Vertex Pharmaceuticals Incorporated, priority 2019, published 2022).

Target: CFTR-mediated chloride transport (Homo sapiens, UniProt P13569)
Experiment: Corrector Assay A - membrane potential dye assay (enteroid cells)
Conditions: for Corrector Assay A % activity: % of chloride transport of triple combination control (1 μM (14S)-dispiro macrocycle + 3 μM tezacaftor + 300 nM ivacaftor); for EC50: read-out: Corrector Assay A EC50, human intestinal enteroid cells, 18-24 h incubation, acute 10 μM forskolin + 300 nM ivacaftor

Row | SMILES | Corrector Assay A % activity | EC50 [nM]
1 | CC(C)(C)c1ccc2c(n1)N1C[C@@H](CC[C@@H](c3cc(C4=CCOCC4)ccn3)Nc3cccc(n3)S(=O)(=O)NC2=O)CC1(C)C (single isomer, unassigned) [Compound 126] | +++ (+++ is >60%) | < 1000
2 | CC(C)(C)c1ccc2c(n1)N1C[C@@H](CCC(c3cc(Cl)ccn3)Nc3cccc(n3)S(=O)(=O)NC2=O)CC1(C)C (single isomer, unassigned) [Compound 127] | +++ (+++ is >60%) | < 1000
3 | CC(C)(C)c1ccc2c(n1)N1C[C@@H](CCC(c3cc(Cl)ccn3)Nc3cccc(n3)S(=O)(=O)NC2=O)CC1(C)C (single isomer, unassigned) [Compound 128] | +++ (+++ is >60%) | < 1000
4 | CC(C)(C)c1ccc2c(n1)N1C[C@@H](CCC(c3cc(C#N)ccn3)Nc3cccc(n3)S(=O)(=O)NC2=O)CC1(C)C (single isomer, unassigned) [Compound 143] | ++ (++ is 30-60%) | < 1000
5 | CC(C)(C)c1ccc2c(n1)N1C[C@@H](CCC(c3cc(C#N)ccn3)Nc3cccc(n3)S(=O)(=O)NC2=O)CC1(C)C (single isomer, unassigned) [Compound 144] | +++ (+++ is >60%) | < 1000
6 | CC(C)(C)c1ccc2c(n1)N1C[C@@H](CCC(c3ccc(CCC#N)cn3)Nc3cccc(n3)S(=O)(=O)NC2=O)CC1(C)C (single isomer, unassigned) [Compound 145] | ++ (++ is 30-60%) | < 1000
7 | CC(C)(C)c1ccc2c(n1)N1C[C@@H](CCC(c3ccc(C4CCOCC4)cn3)Nc3cccc(n3)S(=O)(=O)NC2=O)CC1(C)C (single isomer, unassigned) [Compound 155] | +++ (+++ is >60%) | < 1000
8 | CC(C)(C)c1ccc2c(n1)N1C[C@@H](CCC(c3ccc(Br)cn3)Nc3cccc(n3)S(=O)(=O)NC2=O)CC1(C)C (single isomer, unassigned) [Compound 171] | ++ (++ is 30-60%) | < 1000
9 | CC(C)(C)c1ccc2c(n1)N1C[C@@H](CCC(c3ccc(Br)cn3)Nc3cccc(n3)S(=O)(=O)NC2=O)CC1(C)C (single isomer, unassigned) [Compound 172] | +++ (+++ is >60%) | < 1000
10 | CC(C)(C)c1cccc(C2CC[C@@H]3CN(c4nc(C(C)(C)C)ccc4C(=O)NS(=O)(=O)c4cccc(n4)N2)C(C)(C)C3)n1 (single isomer, unassigned) [Compound 178] | + (+ is <30%) | < 1000
11 | CC(C)(C)c1cccc(C2CC[C@@H]3CN(c4nc(C(C)(C)C)ccc4C(=O)NS(=O)(=O)c4cccc(n4)N2)C(C)(C)C3)n1 (single isomer, unassigned) [Compound 179] | ++ (++ is 30-60%) | < 1000
12 | CC(C)(C)c1ccc(C2CC[C@@H]3CN(c4nc(C(C)(C)C)ccc4C(=O)NS(=O)(=O)c4cccc(n4)N2)C(C)(C)C3)nc1 (single isomer, unassigned) [Compound 186] | +++ (+++ is >60%) | < 1000
13 | CC(C)(C)c1ccc(C2CC[C@@H]3CN(c4nc(C(C)(C)C)ccc4C(=O)NS(=O)(=O)c4cccc(n4)N2)C(C)(C)C3)nc1 (single isomer, unassigned) [Compound 187] | ++ (++ is 30-60%) | < 1000
14 | CC(C)(C)c1ccc2c(n1)N1C[C@@H](CCC(c3ccc(CN)cn3)Nc3cccc(n3)S(=O)(=O)NC2=O)CC1(C)C (single isomer, unassigned) [Compound 197] | ++ (++ is 30-60%) | < 1000
15 | CC(C)(C)c1ccc2c(n1)N1C[C@@H](CCC(c3ccc(C#N)cn3)Nc3cccc(n3)S(=O)(=O)NC2=O)CC1(C)C (single isomer, unassigned) [Compound 205] | +++ (+++ is >60%) | < 1000
16 | CC(C)(C)c1ccc2c(n1)N1C[C@@H](CCC(c3ccc(Cl)cn3)Nc3cccc(n3)S(=O)(=O)NC2=O)CC1(C)C (single isomer, unassigned) [Compound 208] | +++ (+++ is >60%) | < 1000
17 | CC(C)(C)c1ccc2c(n1)N1C[C@@H](CCC(c3ccc(Cl)cn3)Nc3cccc(n3)S(=O)(=O)NC2=O)CC1(C)C (single isomer, unassigned) [Compound 209] | ++ (++ is 30-60%) | < 1000
18 | CC1(C)OCCc2cc3c(nc21)N1C[C@@H](CCC(c2ccccn2)Nc2cccc(n2)S(=O)(=O)NC3=O)CC1(C)C (single isomer, unassigned) [Compound 212] | +++ (+++ is >60%) | < 1000
19 | CC1(C)OCCc2cc3c(nc21)N1C[C@@H](CCC(c2ccccn2)Nc2cccc(n2)S(=O)(=O)NC3=O)CC1(C)C (single isomer, unassigned) [Compound 213] | ++ (++ is 30-60%) | 1000 to 3000
20 | COCCN1CCC2(CC1)CC(NC(=O)C1CC[C@@H]3CN(c4nc(C(C)(C)C)ccc4C(=O)NS(=O)(=O)c4cccc(n4)N1)C(C)(C)C3)C2 (single isomer, unassigned) [Compound 220] | +++ (+++ is >60%) | 1000 to 3000
21 | CC(C)(C)c1ccc2c(n1)N1C[C@@H](CCC(C(=O)NC3CC4(CCNCC4)C3)Nc3cccc(n3)S(=O)(=O)NC2=O)CC1(C)C (single isomer, unassigned) [Compound 222] | ++ (++ is 30-60%) | > 3000
22 | COC(=O)C1CC[C@@H]2CN(c3nc(C(C)(C)C)ccc3C(=O)NS(=O)(=O)c3cccc(n3)N1)C(C)(C)C2 (single isomer, unassigned) [Compound 224] | +++ (+++ is >60%) | < 1000
23 | COC(=O)C1CC[C@@H]2CN(c3nc(C(C)(C)C)ccc3C(=O)NS(=O)(=O)c3cccc(n3)N1)C(C)(C)C2 (single isomer, unassigned) [Compound 225] | ++ (++ is 30-60%) | < 1000
24 | CC(C)(C)OC(=O)N1CCC2(CC1)CC(NC(=O)C1CC[C@@H]3CN(c4nc(C(C)(C)C)ccc4C(=O)NS(=O)(=O)c4cccc(n4)N1)C(C)(C)C3)C2 (single isomer, unassigned) [Compound 226] | +++ (+++ is >60%) | < 1000
25 | CC(C)(C)c1ccc2c(n1)N1C[C@@H](CCC(C(=O)O)Nc3cccc(n3)S(=O)(=O)NC2=O)CC1(C)C (single isomer, unassigned) [Compound 230] | +++ (+++ is >60%) | > 3000
26 | CC(C)(C)c1ccc2c(n1)N1C[C@@H](CCC(C(=O)O)Nc3cccc(n3)S(=O)(=O)NC2=O)CC1(C)C (single isomer, unassigned) [Compound 231] | + (+ is <30%) | > 3000

Results, then the molecule that gave them:

Row | Corrector Assay A % activity | EC50 [nM] | SMILES
27 | +++ (+++ is >60%) | 1000 to 3000 | CC(C)(C)c1ccc2c(n1)N1C[C@@H](CC[C@@H](c3ncccn3)Nc3cccc(n3)S(=O)(=O)NC2=O)CC1(C)C (single isomer, unassigned) [Compound 206]
28 | +++ (+++ is >60%) | < 1000 | CC(C)(C)c1ccc2c(n1)N1C[C@@H](CC[C@@H](c3ncccn3)Nc3cccc(n3)S(=O)(=O)NC2=O)CC1(C)C (single isomer, unassigned) [Compound 207]
29 | + (+ is <30%) | – | CC(C)(C)c1ccc2c(n1)N1C[C@@H](CC[C@@H](c3ccncn3)Nc3cccc(n3)S(=O)(=O)NC2=O)CC1(C)C (single isomer, unassigned) [Compound 216]
30 | ++ (++ is 30-60%) | < 1000 | CC(C)(C)c1ccc2c(n1)N1C[C@@H](CC[C@@H](c3ccncn3)Nc3cccc(n3)S(=O)(=O)NC2=O)CC1(C)C (single isomer, unassigned) [Compound 217]
31 | ++ (++ is 30-60%) | < 1000 | CC(C)(C)c1ccc2c(n1)N1C[C@@H](CC[C@@H](C3CCN(c4ncccn4)CC3)Nc3cccc(n3)S(=O)(=O)NC2=O)CC1(C)C (single isomer, unassigned) [Compound 219]
32 | ++ (++ is 30-60%) | < 1000 | CC(=O)N1CCC([C@@H]2CC[C@@H]3CN(c4nc(C(C)(C)C)ccc4C(=O)NS(=O)(=O)c4cccc(n4)N2)C(C)(C)C3)CC1 (single isomer, unassigned) [Compound 229]
33 | +++ (+++ is >60%) | < 1000 | CC(C)(C)c1ccc2c(n1)N1C[C@@H](CCC(c3ccncc3)Nc3cccc(n3)S(=O)(=O)NC2=O)CC1(C)C (single isomer, unassigned) [Compound 232]
34 | ++ (++ is 30-60%) | < 1000 | CC(C)(C)c1ccc2c(n1)N1C[C@@H](CCC(c3ccncc3)Nc3cccc(n3)S(=O)(=O)NC2=O)CC1(C)C (single isomer, unassigned) [Compound 233]
35 | ++ (++ is 30-60%) | < 1000 | CC(C)(C)c1ccc2c(n1)N1C[C@@H](CC[C@@H](C3CCCCC3)Nc3cccc(n3)S(=O)(=O)NC2=O)CC1(C)C (single isomer, unassigned) [Compound 234]
36 | ++ (++ is 30-60%) | < 1000 | CC(C)(C)c1ccc2c(n1)N1C[C@@H](CC[C@@H](C3CCCCC3)Nc3cccc(n3)S(=O)(=O)NC2=O)CC1(C)C (single isomer, unassigned) [Compound 235]
37 | ++ (++ is 30-60%) | 1000 to 3000 | CN(C)CC(=O)N1CCC([C@@H]2CC[C@@H]3CN(c4nc(C(C)(C)C)ccc4C(=O)NS(=O)(=O)c4cccc(n4)N2)C(C)(C)C3)CC1 (single isomer, unassigned) [Compound 237]
38 | + (+ is <30%) | > 3000 | CC(C)(C)c1ccc2c(n1)N1C[C@@H](CC[C@@H](C3CCN(CCC(F)(F)F)CC3)Nc3cccc(n3)S(=O)(=O)NC2=O)CC1(C)C (single isomer, unassigned) [Compound 239]
